US20050202424A1, “Regulators of biofilm formation and uses thereof” (priority 2001, published 2005)
In brackets after ≈: the same amount, converted by molar mass.

Experiments:
[1] = system: P. aeruginosa small colony variants in CF sputum samples; experiment: Antibiotic resistant small colony variants in CF sputum samples plated on cetrimide agar with and without antibiotics; format: cell-based, Pseudomonas aeruginosa
Procedure: Five CF sputum samples from the Clinical Microbiology Laboratory at Massachusetts General Hospital were suspended in 5 ml of 10 mM MgSO4. Serial dilutions of the samples were then plated onto cetrimide agar plates with and without antibiotics. The plates were screened for the presence of P. aeruginosa after 24 and 48 hours of incubation at 37° C. The identity of the colonies was later confirmed by probing colony lifts with the exotoxin A gene from P. aeruginosa. To this end, the EcoRI-HindIII fragment of plasmid pRGI containing the exoA gene (Samadpour et al., J. Clin. Microbiol. 26:2319-23, 1988) was gel isolated and labeled using a random priming kit (Boehringer, Mannheim, Indianapolis, Ind.). Colonies were transferred to nylon membranes and hybridizations were performed according to the manufacturer's recommendations (NEN Research Products, Boston, Mass.). Identification of colonies carrying the exoA gene was then performed using a Phosphorimager (Amersham Pharmacia Biotech Inc., Piscataway, N.J.).
The presence of P. aeruginosa antibiotic resistant small colony variants was determined by plating CF sputum samples on cetrimide agar with and without the indicated antibiotics. […]

PA14 RSCV = experiment: Resistance of PA14 RSCV colonies to antibiotics on plates; format: cell-based, Pseudomonas aeruginosa; details: for resistance of PA14 RSCV colonies: 8 individual colonies
Procedure: To induce such phenotypic variants, an overnight culture of P. aeruginosa strain PA14 (UCBPP-PA14) was inoculated onto Luria-Bertani (LB) containing 200 μg/ml of kanamycin, incubated at 37° C. for 48 hours, at which time, antibiotic resistant rough small variants were isolated. Antibiotic resistant colonies arose at a frequency of 10^−6-10^−7. […] In addition to being resistant to kanamycin, (up to 40 times the susceptibility level of the wild-type), 8 individual PA14 RSCV colonies tested were also resistant to amikacin (30 μg/ml), carbenicillin (300 μg/ml), gentamicin (30 μg/ml), tobramycin (10 μg/ml), and tetracycline (150 μg/ml). Consistent with this latter result, antibiotic resistant variants were also obtained at frequencies of about 10^−7 by plating overnight cultures of PA14 on media containing similar concentrations of the antibiotics mentioned above.

wild-type PA14 = experiment: Minimal inhibitory concentration of kanamycin in liquid culture; format: cell-based; details: Pseudomonas aeruginosa; PA14 in M63 liquid medium; read-out: concentration of kanamycin required to inhibit growth (MIC)
Procedure: Phenotypic variation is a common phenomenon in Gram-negative bacteria that often involves environmentally regulated changes in observable phenotypes produced by modifications in surface components. The effect that different environmental stimuli had on the appearance of kanamycin-resistant phenotypic variants was examined. Bacteria were grown in LB broth, or in supplemented LB with appropriate antibiotics at the indicated temperature with aeration. […] Moreover, the frequency of variants increased 200-fold when plates were incubated at 25° C. compared to 37° C. (FIG. 2A). Finally, a dramatic 10^6-fold increase was obtained on minimal M63 salts as compared to LB medium (FIG. 2A). Minimal salt media consisted of M63 supplemented with 0.3% glucose, 1 mM MgSO4, and 0.5% casamino acids. Importantly, there was a correlation between the frequency of appearance of kanamycin resistant variants on plates and minimal inhibitory concentrations (MICs) of kanamycin in liquid culture for the wild-type PA14 using the culture conditions described above (FIG. 2B).

[2] = system: PA14 and PA14 RSCV biofilms; experiment: Biofilm resistance to tobramycin in flow chambers (viable biomass by CSLM of GFP-tagged cells); format: cell-based, Pseudomonas aeruginosa; details: continuous flow of tobramycin 200 μg/ml on established biofilms
Procedure: To determine whether the antibiotic resistant phenotype of PA14 RSCV is associated with altered biofilm formation, PA14 RSCV was cultured under biofilm-forming conditions as follows. For biofilm characterization, PA14 RSCV biofilms were cultivated under continuous culture conditions in flow-chambers with channel dimensions of 12 by 52 by 2 mm. Flow media consisted of M63 supplemented with 0.5% casamino acids and 0.3% glucose. For measurement of biofilm resistance, bacteria were cultivated in flow-chambers with channel dimensions of 1 by 40 by 4 mm (Stovall Inc., Greensboro, N.C.). In this case, flow media consisted of FAB medium (0.1 mM CaCl2, 0.01 mM Fe-EDTA, 0.15 mM NH4SO4, 0.33 mM Na2HPO4, 0.2 mM KH2PO4 and 1 mM MgCl2) supplemented with casamino acids (0.5%) and sodium citrate (10 mM). Flow-cells in both cases were inoculated with 100-fold dilutions of overnight cultures of PA14 and PA14 RSCV carrying the green fluorescent protein (GFP) in plasmid SMC21, a derivative of pSMC2 (Bloemberg et al., Appl. Environ. Microbiol. 63: 4543-4551, 1997). […] The volume (in μm^3) of individual biofilm structures was determined from serial sections using ImageSpace software (Molecular Dynamics, Sunnyvale, Calif.).
Viable biomass was measured by CSLM analysis of GFP-tagged PA14 and PA14 RSCV cells using GFP expression as a viability marker as described previously (FIG. 1E).

[3] = Sample 5, patient on Amikacin(IV)/Ceftazidime(IV)
[4] = Sample 38, patient on Tobramycin (I)/Levofloxacin
[5] = Sample 41, no antibiotic treatment
[6] = Sample 42, no antibiotic treatment
[7] = Sample 43, no antibiotic treatment

Row | Molecule | Variants resistant to antibiotic (%) [1, 3] [%] | Variants resistant to antibiotic (%) [1, 4] [%] | Variants resistant to antibiotic (%) [1, 5] [%] | Variants resistant to antibiotic (%) [1, 6] [%] | Variants resistant to antibiotic (%) [1, 7] [%] | resistance of PA14 RSCV colonies (PA14 RSCV; amikacin 30 μg/ml) | resistance of PA14 RSCV colonies (PA14 RSCV; carbenicillin 300 μg/ml) | MIC (wild-type PA14) [µg/mL] | resistance to kanamycin relative to the susceptibility level of the wild-type (PA14 RSCV; PA14 RSCV colonies) | resistance of PA14 RSCV biofilm to tobramycin treatment versus wild-type PA14 biofilm [2] | resistance of PA14 RSCV colonies (PA14 RSCV; tobramycin 10 μg/ml) | resistance of PA14 RSCV colonies (PA14 RSCV; gentamicin 30 μg/ml)
1 | NCC[C@H](O)C(=O)N[C@@H]1C[C@H](N)[C@@H](O[C@H]2O[C@H](CN)[C@@H](O)[C@H](O)[C@H]2O)[C@H](O)[C@H]1O[C@H]1O[C@H](CO)[C@@H](O)[C@H](N)[C@H]1O [amikacin] | 100 | 100 | 15 | 5 | 0.2 | resistant |  |  |  |  |  | 
2 | CC1(C)S[C@@H]2[C@H](NC(=O)C(C(=O)O)c3ccccc3)C(=O)N2[C@H]1C(=O)O (some centres unmarked) [carbenicillin] |  |  |  |  |  |  | resistant |  |  |  |  | 
3 | NC[C@H]1O[C@H](O[C@H]2[C@H](O)[C@@H](O[C@H]3O[C@H](CO)[C@@H](O)[C@H](N)[C@H]3O)[C@H](N)C[C@@H]2N)[C@H](O)[C@@H](O)[C@@H]1O [kanamycin] |  |  |  |  |  |  |  | 475 (≈ 980 µM) | up to 40 times |  |  | 
4 | CN(C)[C@@H]1C(O)=C(C(N)=O)C(=O)[C@@]2(O)C(O)=C3C(=O)c4c(O)cccc4[C@@](C)(O)[C@H]3C[C@@H]12 [tetracycline] | 30 | 32 | 0 | 0 |  |  |  |  |  |  |  | 
5 | NC[C@H]1O[C@H](O[C@H]2[C@H](O)[C@@H](O[C@H]3O[C@H](CO)[C@@H](O)[C@H](N)[C@H]3O)[C@H](N)C[C@@H]2N)[C@H](N)C[C@@H]1O [tobramycin] | 50 | 100 | 0.10 | 0 | 0.5 |  |  |  |  | more resistant | resistant | 
6 | gentamicin | 100 | 100 | 10 | 6.6 | 0.5 |  |  |  |  |  |  | resistant
